Data from patent US20230072683A1, “PYRIDO-PYRIMIDIN DERIVATIVES AND PHARMACEUTICAL COMPOSITION, FOR USE IN PREVENTING OR TREATING PI3 KINASE RELATED DISEASES, COMPRISING SAME AS ACTIVE INGREDIENT” (BORYUNG PHARMACEUTICAL CO., LTD, priority 2019, published 2023).

Columns and labels:
DNA-PK(h) = DNA-PK(h) (Homo sapiens, UniProt P78527); assay: Evaluation of inhibitory activity against DNA-PK (HTRF kinase assay, GST-cMyc-p53 substrate); assay type: biochemical; details: compound concentration 0.01 μM; read-out: EXP_VALUE(% Inhibition) DNA-PK(h) 0.01 μM
Outline: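 p53 Ser15 phosphorylation by human DNA-PK was measured by time-resolved FRET ratio (665/620 nm ×10000) using Eu-labelled anti-phospho-Ser15 and d2 anti-GST antibodies. Substrate GST-cMyc-p53 at 50 μM; Mg/ATP-initiated, 30 min at room temperature, EDTA stop.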

[1] = biological target: PI3K-δ (PI3K(p1108/p857) (h)) (Homo sapiens, UniProt O00329); assay: Evaluation of inhibitory activity against PI3K-δ (HTRF kinase assay); assay type: biochemical; details: compound concentration 0.01 μM; read-out: EXP_VALUE(% Inhibition) PI3K-δ 0.01 μM
Chain of PI3K-δ (PI3K(p1108/p857) (h)) (O00329 whole entry, the tested form may be a part): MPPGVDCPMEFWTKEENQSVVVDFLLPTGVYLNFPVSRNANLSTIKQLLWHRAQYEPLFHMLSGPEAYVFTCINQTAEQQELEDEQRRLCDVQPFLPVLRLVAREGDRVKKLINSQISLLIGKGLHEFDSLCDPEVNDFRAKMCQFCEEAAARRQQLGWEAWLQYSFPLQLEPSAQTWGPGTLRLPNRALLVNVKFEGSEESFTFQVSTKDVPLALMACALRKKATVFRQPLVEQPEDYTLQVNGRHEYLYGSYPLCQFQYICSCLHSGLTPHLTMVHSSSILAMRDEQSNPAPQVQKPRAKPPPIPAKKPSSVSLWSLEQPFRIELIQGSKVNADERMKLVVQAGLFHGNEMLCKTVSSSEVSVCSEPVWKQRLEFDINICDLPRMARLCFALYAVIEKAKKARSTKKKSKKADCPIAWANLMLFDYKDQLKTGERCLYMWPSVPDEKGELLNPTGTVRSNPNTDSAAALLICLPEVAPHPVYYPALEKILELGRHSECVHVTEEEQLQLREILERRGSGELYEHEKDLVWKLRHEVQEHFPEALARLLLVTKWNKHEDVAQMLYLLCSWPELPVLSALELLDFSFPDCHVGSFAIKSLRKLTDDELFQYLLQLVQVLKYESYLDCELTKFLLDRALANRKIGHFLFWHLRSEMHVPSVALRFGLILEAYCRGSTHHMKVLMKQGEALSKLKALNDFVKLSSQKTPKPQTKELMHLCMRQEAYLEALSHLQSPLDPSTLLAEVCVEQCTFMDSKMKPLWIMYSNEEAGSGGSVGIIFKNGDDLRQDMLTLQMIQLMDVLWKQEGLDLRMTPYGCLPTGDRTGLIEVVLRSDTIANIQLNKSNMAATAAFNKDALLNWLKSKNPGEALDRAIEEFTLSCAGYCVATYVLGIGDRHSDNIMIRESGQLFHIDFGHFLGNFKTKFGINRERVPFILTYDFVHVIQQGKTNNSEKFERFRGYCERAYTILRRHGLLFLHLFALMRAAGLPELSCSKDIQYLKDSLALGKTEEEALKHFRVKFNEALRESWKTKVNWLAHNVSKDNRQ
Chain of PI3K-δ (PI3K(p1108/p857) (h)) (P27986 whole entry partner, the tested form may be a part): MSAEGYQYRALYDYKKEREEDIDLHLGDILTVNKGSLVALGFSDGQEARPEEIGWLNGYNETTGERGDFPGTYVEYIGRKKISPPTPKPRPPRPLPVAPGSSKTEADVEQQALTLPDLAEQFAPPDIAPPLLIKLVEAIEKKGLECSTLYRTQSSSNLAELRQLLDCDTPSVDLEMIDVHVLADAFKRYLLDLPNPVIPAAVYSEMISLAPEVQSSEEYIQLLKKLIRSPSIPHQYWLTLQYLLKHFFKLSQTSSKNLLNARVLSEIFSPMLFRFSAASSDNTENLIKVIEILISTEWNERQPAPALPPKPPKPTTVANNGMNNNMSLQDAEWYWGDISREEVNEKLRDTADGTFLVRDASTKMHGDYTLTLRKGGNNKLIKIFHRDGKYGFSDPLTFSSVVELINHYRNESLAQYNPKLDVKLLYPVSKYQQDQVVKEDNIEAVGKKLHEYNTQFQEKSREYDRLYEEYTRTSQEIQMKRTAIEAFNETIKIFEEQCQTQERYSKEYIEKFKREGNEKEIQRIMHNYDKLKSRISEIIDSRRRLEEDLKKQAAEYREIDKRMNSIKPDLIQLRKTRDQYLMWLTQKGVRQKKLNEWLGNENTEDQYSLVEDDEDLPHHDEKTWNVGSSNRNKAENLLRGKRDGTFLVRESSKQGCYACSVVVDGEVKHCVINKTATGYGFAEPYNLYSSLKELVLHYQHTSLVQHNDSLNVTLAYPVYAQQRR
Outline: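 HTRF read-out (665/620 nm ratio ×10000) used Eu-labelled anti-GST, GST-tagged GRP1 PH domain and streptavidin-allophycocyanin after EDTA/PIP3 stop.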

SMILES | inhibition at 0.01 µM (DNA-PK(h)) [%] | inhibition at 0.01 µM [1] [%]
C[C@H](Nc1ncnc2[nH]ccc(=O)c12)c1c(Cl)c2cccc(-c3cc(F)c4c(c3)NCCO4)c2c(=O)n1-c1ccccc1 [Example 192, (S)-4-((1-(4-chloro-8-(8-fluoro-3,4-dihydro-2H-benzo[b] [1,4]oxazin-6-yl)-1-oxo-2-phenyl-1,2-dihydroisoquinolin-3-yl)ethyl)amino)pyrido[2,3-d]pyrimidin-5(8H)-one] | 25 | 72
CC(C)NC(=O)c1ccc(-c2cccc3c(Cl)c([C@H](C)Nc4ncnc5[nH]ccc(=O)c45)n(-c4ccccc4)c(=O)c23)cc1 [Example 193, (S)-4-(4-chloro-1-oxo-3-(1-((5-oxo-5,8-dihydropyrido[2,3-d]pyrimidin-4-yl)amino)ethyl)-2-phenyl-1,2-dihydroisoquinolin-8-yl)-N-isopropylbenzamide] | 71 | 72
C[C@H](Nc1ncnc2[nH]ccc(=O)c12)c1c(Cl)c2cccc(-c3ccc(N4CCCCC4)nc3)c2c(=O)n1-c1ccccc1 [Example 194, (S)-4-((1-(4-chloro-1-oxo-2-phenyl-8-(6-(piperidin-1-yl)pyridin-3-yl)-1,2-dihydroisoquinolin-3-yl)ethyl)amino)pyrido[2,3-d]pyrimidin-5(8H)-one] | 31 | 59
C[C@H](Nc1ncnc2[nH]ccc(=O)c12)c1c(Cl)c2cccc(-c3ccnc(F)c3)c2c(=O)n1-c1ccccc1 [Example 195, (S)-4-((1-(4-chloro-8-(2-fluoropyridin-4-yl)-1-oxo-2-phenyl-1,2-dihydroisoquinolin-3-yl)ethyl)amino)pyrido[2,3-d]pyrimidin-5(8H)-one] | 101 | 118
CNC(=O)c1ccc(-c2cccc3c(Cl)c([C@H](C)Nc4ncnc5[nH]ccc(=O)c45)n(-c4ccccc4)c(=O)c23)cn1 [Example 196, (S)-5-(4-chloro-1-oxo-3-(1-((5-oxo-5,8-dihydropyrido[2,3-d]pyrimidin-4-yl)amino)ethyl)-2-phenyl-1,2-dihydroisoquinolin-8-yl)-N-methylpicolinamide] | 101 | 127
COc1ncc(-c2cccc3c(Cl)c([C@H](C)Nc4ncnc5[nH]ccc(=O)c45)n(-c4ccccc4)c(=O)c23)cc1C [Example 197, (S)-4-((1-(4-chloro-8-(6-methoxy-5-methylpyridin-3-yl)-1-oxo-2-phenyl-1,2-dihydroisoquinolin-3-yl)ethyl)amino)pyrido[2,3-d]pyrimidin-5(8H)-one] | 61 | 91
C[C@H](Nc1ncnc2[nH]ccc(=O)c12)c1c(Cl)c2cccc(-c3cnccn3)c2c(=O)n1-c1ccccc1 [Example 198, (S)-4-((1-(4-chloro-1-oxo-2-phenyl-8-(pyrazin-2-yl)-1,2-dihydroisoquinolin-3-yl)ethyl)amino)pyrido[2,3-d]pyrimidin-5(8H)-one] | 63 | 90
CCOc1c(OC)ccc(-c2cccc3c(Cl)c([C@H](C)Nc4ncnc5[nH]ccc(=O)c45)n(-c4ccccc4)c(=O)c23)c1F [Example 199, (S)-4-((1-(4-chloro-8-(3-ethoxy-2-fluoro-4-methoxyphenyl)-1-oxo-2-phenyl-1,2-dihydroisoquinolin-3-yl)ethyl)amino)pyrido[2,3-d]pyrimidin-5(8H)-one] | 60 | 35
C[C@H](Nc1ncnc2[nH]ccc(=O)c12)c1c(Cl)c2cccc(-c3cnc(N4CCC4)nc3)c2c(=O)n1-c1ccccc1 [Example 200, (S)-4-((1-(8-(2-(azetidin-1-yl)pyrimidin-5-yl)-4-chloro-1-oxo-2-phenyl-1,2-dihydroisoquinolin-3-yl)ethyl)amino)pyrido[2,3-d]pyrimidin-5(8H)-one] | 72 | 77
C[C@H](Nc1ncnc2[nH]ccc(=O)c12)c1c(Cl)c2cccc(-c3ccc(C(N)=O)nc3)c2c(=O)n1-c1ccccc1 [Example 201, (S)-5-(4-chloro-1-oxo-3-(1-((5-oxo-5,8-dihydropyrido[2,3-d]pyrimidin-4-yl)amino)ethyl)-2-phenyl-1,2-dihydroisoquinolin-8-yl) picolinamide] | 73 | 80
CC(=O)Nc1ccc(-c2cccc3c(Cl)c([C@H](C)Nc4ncnc5[nH]ccc(=O)c45)n(-c4ccccc4)c(=O)c23)cn1 [Example 202, (S)—N-(5-(4-chloro-1-oxo-3-(1-((5-oxo-5,8-dihydropyrido[2,3-d]pyrimidin-4-yl)amino)ethyl)-2-phenyl-1,2-dihydroisoquinolin-8-yl)pyridin-2-yl) acetamide] | 70 | 78
C[C@H](Nc1ncnc2[nH]ccc(=O)c12)c1c(Cl)c2cccc(-c3cnc(NC4CC4)nc3)c2c(=O)n1-c1ccccc1 [Example 203, (S)-4-((1-(4-chloro-8-(2-(cyclopropylamino)pyrimidin-5-yl)-1-oxo-2-phenyl-1,2-dihydroisoquinolin-3-yl)ethyl)amino)pyrido[2,3-d]pyrimidin-5(8H)-one] | 79 | 106
COc1cncc(-c2cccc3c(Cl)c([C@H](C)Nc4ncnc5[nH]ccc(=O)c45)n(-c4ccccc4)c(=O)c23)n1 [Example 204, (S)-4-((1-(4-chloro-8-(6-methoxypyrazin-2-yl)-1-oxo-2-phenyl-1,2-dihydroisoquinolin-3-yl)ethyl)amino)pyrido[2,3-d]pyrimidin-5(8H)-one] | 66 | 73
C[C@H](Nc1ncnc2[nH]ccc(=O)c12)c1c(Cl)c2cccc(-c3cnc(N(C)C)cn3)c2c(=O)n1-c1ccccc1 [Example 205, (S)-4-((1-(4-chloro-8-(5-(dimethylamino)pyrazin-2-yl)-1-oxo-2-phenyl-1,2-dihydroisoquinolin-3-yl)ethyl)amino)pyrido[2,3-d]pyrimidin-5(8H)-one] | 47 | 49
C[C@H](Nc1ncnc2[nH]ccc(=O)c12)c1c(Cl)c2cccc(-c3cnc(OC(C)(C)C)cn3)c2c(=O)n1-c1ccccc1 [Example 206, (S)-4-((1-(8-(5-(tert-butoxy)pyrazin-2-yl)-4-chloro-1-oxo-2-phenyl-1,2-dihydroisoquinolin-3-yl)ethyl)amino)pyrido[2,3-d]pyrimidin-5(8H)-one] | 29 | 45
C[C@H](Nc1ncnc2[nH]ccc(=O)c12)c1c(Cl)c2cccc(-c3cnc(N4CCOCC4)cn3)c2c(=O)n1-c1ccccc1 [Example 207, (S)-4-((1-(4-chloro-8-(5-morpholinopyrazin-2-yl)-1-oxo-2-phenyl-1,2-dihydroisoquinolin-3-yl)ethyl)amino)pyrido[2,3-d]pyrimidin-5(8H)-one] | 52 | 57
C[C@H](Nc1ncnc2[nH]ccc(=O)c12)c1c(Cl)c2cccc(-c3cnc(C(C)(C)C)nc3)c2c(=O)n1-c1ccccc1 [Example 208, (S)-4-((1-(8-(2-(tert-butyl)pyrimidin-5-yl)-4-chloro-1-oxo-2-phenyl-1,2-dihydroisoquinolin-3-yl)ethyl)amino)pyrido[2,3-d]pyrimidin-5(8H)-one] | 58 | 68
